Assay results taken from ChEMBL document CHEMBL5154798, “Structure-based discovery of receptor tyrosine kinase AXL degraders with excellent anti-tumor activity by selectively degrading AXL and inducing methuosis” (Eur J Med Chem, 2022).
Active and inactive are the calls of the source. The rule behind the calls is not given here.

Columns and labels:
[1] = Half-life in male Sprague-Dawley rat at 20 mg/kg, po administered as single dose measured by LC/MS/MS analysis; assay type: ADME, organism-based; conditions: in vivo
4T1 [2] = test: Induction of cytoplasmic vacuolation in mouse 4T1 cells at 0.5 uM; assay type: functional, cell-based
[3] = Systemic toxicity in female BALB/c nude mouse xenografted with human MDA-MB-231 cells assessed as inflammatory cell infiltration in kidney at 25 mg/kg, ip; assay type: organism-based; conditions: in vivo
MDA-MB-231 [4] = test: Induction of macropinocytosis in human MDA-MB-231 cells assessed as co-localization of LAMP-1 with lucifer yellow measured by immunofluorescence assay; assay type: functional, cell-based
[5] = Clearance in male Sprague-Dawley rat at 2 mg/kg, iv administered as single dose measured by LC/MS/MS analysis; assay type: ADME, organism-based; conditions: in vivo, iv, 2 mg/kg
[6] = AUC (0 to t) in male Sprague-Dawley rat at 20 mg/kg, po administered as single dose measured by LC/MS/MS analysis; assay type: ADME, organism-based; parameters: dose 20 mg/kg, route po; conditions: in vivo
[7] = Systemic toxicity in female BALB/c nude mouse xenografted with human MDA-MB-231 cells assessed as necrosis of spleen tissue at 25 mg/kg, ip; assay type: organism-based; conditions: in vivo
MDA-MB-231 [8] = test: Induction of macropinocytosis in human MDA-MB-231 cells assessed as co-localization of Rab7 with lucifer yellow measured by immunofluorescence assay; assay type: functional, cell-based
[9] = Systemic toxicity in female BALB/c nude mouse xenografted with human MDA-MB-231 cells assessed as inflammatory cell infiltration in heart at 25 mg/kg, ip; assay type: organism-based; conditions: in vivo
Mus musculus = test: In vivo induction of CRBN-mediated AXL degradation in mouse measured after 6 hrs; assay type: functional, organism-based
[10] = Tmax in male Sprague-Dawley rat at 20 mg/kg, po administered as single dose measured by LC/MS/MS analysis; assay type: ADME, organism-based; conditions: in vivo
[11] = Systemic toxicity in female BALB/c nude mouse xenografted with human MDA-MB-231 cells assessed as inflammatory cell infiltration in liver at 25 mg/kg, ip; assay type: organism-based; conditions: in vivo
[12] = Tmax in male Sprague-Dawley rat at 2 mg/kg, iv administered as single dose measured by LC/MS/MS analysis; assay type: ADME, organism-based; conditions: in vivo
[13] = Cmax in male Sprague-Dawley rat at 2 mg/kg, iv administered as single dose measured by LC/MS/MS analysis; assay type: ADME, organism-based; parameters: dose 2 mg/kg, route iv; conditions: in vivo
[14] = Systemic toxicity in female BALB/c nude mouse xenografted with human MDA-MB-231 cells assessed as necrosis of kidney tissue at 25 mg/kg, ip; assay type: organism-based; conditions: in vivo
[15] = Oral bioavailability in male Sprague-Dawley rat at 20 mg/kg administered as single dose measured by LC/MS/MS analysis; assay type: ADME, organism-based; conditions: in vivo
MDA-MB-231 [16] = test: Induction of cytoplasmic vacuolation in human MDA-MB-231 cells at 1 uM in presence of 1 uM pan-caspase inhibitor Z-VAD-FMK; assay type: functional, cell-based
MDA-MB-231 [17] = test: Induction of cytoplasmic vacuolation in human MDA-MB-231 cells at 0.5 uM; assay type: functional, cell-based
MDA-MB-231 [18] = test: Antitumor activity against human MDA-MB-231 cells xenografted in female BALB/c nude mouse assessed as tumor growth inhibition at 25 mg/kg, ip; assay type: functional, organism-based
MDA-MB-231 [19] = test: Antiproliferative activity against human MDA-MB-231 cells highly expressing AXL after 72 hrs by MTT assay; conditions: MDA-MB-231, 72 h
[20] = Half-life in male Sprague-Dawley rat at 2 mg/kg, iv administered as single dose measured by LC/MS/MS analysis; assay type: ADME, organism-based; conditions: in vivo
[21] = Systemic toxicity in female BALB/c nude mouse xenografted with human MDA-MB-231 cells assessed as inflammatory cell infiltration in lung at 25 mg/kg, ip; assay type: organism-based; conditions: in vivo
[22] = Systemic toxicity in female BALB/c nude mouse xenografted with human MDA-MB-231 cells assessed as necrosis of liver tissue at 25 mg/kg, ip; assay type: organism-based; conditions: in vivo
[23] = Cmax in male Sprague-Dawley rat at 20 mg/kg, po administered as single dose measured by LC/MS/MS analysis; assay type: ADME, organism-based; parameters: dose 20 mg/kg, route po; conditions: in vivo
4T1 [24] = test: Antiproliferative activity against mouse 4T1 cells highly expressing AXL after 72 hrs by MTT assay; conditions: 4T1, 72 h
[25] = Cytotoxicity against human GES1 cells after 72 hrs by MTT assay; assay type: toxicity, cell-based
MDA-MB-231 [26] = test: Induction of macropinocytosis in human MDA-MB-231 cells measured by LysoTracker staining based fluorescence microscopy; assay type: functional, cell-based
[27] = Systemic toxicity in female BALB/c nude mouse xenografted with human MDA-MB-231 cells assessed as necrosis of lung tissue at 25 mg/kg, ip; assay type: organism-based; conditions: in vivo
[28] = Toxicity in female BALB/c nude mouse xenografted with human MDA-MB-231 cells assessed as change in body wieght at 25 mg/kg, ip; assay type: organism-based; conditions: in vivo
[29] = Systemic toxicity in female BALB/c nude mouse xenografted with human MDA-MB-231 cells assessed as necrosis of heart tissue at 25 mg/kg, ip; assay type: organism-based; conditions: in vivo
[30] = Systemic toxicity in female BALB/c nude mouse xenografted with human MDA-MB-231 cells assessed as inflammatory cell infiltration in spleen at 25 mg/kg, ip; assay type: organism-based; conditions: in vivo
[31] = AUC (0 to t) in male Sprague-Dawley rat at 2 mg/kg, iv administered as single dose measured by LC/MS/MS analysis; assay type: ADME, organism-based; parameters: dose 2 mg/kg, route iv; conditions: in vivo
[32] = Cytotoxicity against human MCF-10A cells after 72 hrs by MTT assay; assay type: toxicity, cell-based
MDA-MB-231 [33] = test: Induction of macropinocytosis in human MDA-MB-231 cells measured by MitoTracker staining based fluorescence microscopy; assay type: functional, cell-based
[34] = molecular target: T1, Tyrosine-protein kinase receptor UFO (Homo sapiens, UniProt P30530); test: Inhibition of AXL (unknown origin) measured by FRET assay
T1 sequence (P30530 whole entry): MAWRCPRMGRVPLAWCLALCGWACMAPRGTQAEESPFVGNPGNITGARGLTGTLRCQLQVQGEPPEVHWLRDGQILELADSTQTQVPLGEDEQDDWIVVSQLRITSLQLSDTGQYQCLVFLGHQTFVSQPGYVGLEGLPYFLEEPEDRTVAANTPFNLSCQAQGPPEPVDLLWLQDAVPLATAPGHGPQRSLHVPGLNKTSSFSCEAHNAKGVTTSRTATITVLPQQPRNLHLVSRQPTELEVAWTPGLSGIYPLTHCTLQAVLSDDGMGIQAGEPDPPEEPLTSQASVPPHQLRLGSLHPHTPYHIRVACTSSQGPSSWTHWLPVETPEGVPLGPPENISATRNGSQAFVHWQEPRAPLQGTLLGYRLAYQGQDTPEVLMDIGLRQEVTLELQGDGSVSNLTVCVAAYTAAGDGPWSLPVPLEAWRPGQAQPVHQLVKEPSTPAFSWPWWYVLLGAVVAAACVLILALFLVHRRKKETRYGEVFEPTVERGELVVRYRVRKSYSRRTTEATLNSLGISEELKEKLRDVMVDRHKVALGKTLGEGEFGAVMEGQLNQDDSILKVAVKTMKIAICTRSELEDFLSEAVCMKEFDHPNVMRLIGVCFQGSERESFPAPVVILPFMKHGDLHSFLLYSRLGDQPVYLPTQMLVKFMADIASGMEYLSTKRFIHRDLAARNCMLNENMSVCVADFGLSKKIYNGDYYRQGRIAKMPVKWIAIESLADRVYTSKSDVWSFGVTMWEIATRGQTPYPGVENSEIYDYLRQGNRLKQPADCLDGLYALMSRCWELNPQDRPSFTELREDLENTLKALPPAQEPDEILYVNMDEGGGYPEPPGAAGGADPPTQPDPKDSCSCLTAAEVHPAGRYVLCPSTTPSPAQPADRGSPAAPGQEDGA

Nc1nc(Nc2ccc(CNC(=O)CCCCCNc3cccc4c3CN(C3CCC(=O)NC3=O)C4=O)cc2)nn1-c1ccc(-c2ccccc2)nn1 (stereo not drawn)
half-life [1]: 4.43 h
Activity (4T1 [2]): Active
Activity [3]: Non-Toxic
Activity (MDA-MB-231 [4]): Active
CL [5]: 12 mL/min/kg
AUC(0-t) [6]: 3590 ng·h/mL
Activity [7]: Non-Toxic
Activity (MDA-MB-231 [8]): Active
Activity [9]: Non-Toxic
Activity (Mus musculus): Active
Tmax [10]: 2.25 h
Activity [11]: Non-Toxic
Tmax [12]: 0.82 h
Cmax [13]: 279 ng/mL
Activity [14]: Non-Toxic
bioavailability [15]: 7.8%
Activity (MDA-MB-231 [16]): Active
Activity (MDA-MB-231 [17]): Active
TGI (MDA-MB-231 [18]): Active
IC50 (MDA-MB-231 [19]): 6.23 µM
t1/2 [20]: 1.18 h
Activity [21]: Non-Toxic
Activity [22]: Non-Toxic
Cmax [23]: 144 ng/mL
IC50 (4T1 [24]): 2.06 µM
IC50 at 72 h [25]: > 60 µM
Activity (MDA-MB-231 [26]): Active
Activity [27]: Non-Toxic
Activity [28]: Non-Toxic
Activity [29]: Non-Toxic
Activity [30]: Non-Toxic
AUCt [31]: 7581.3 ng·h/mL
IC50 at 72 h [32]: > 60 µM
Activity (MDA-MB-231 [33]): Active

Nc1nc(Nc2ccc(CNC(=O)CCCCCCNc3cccc4c3CN(C3CCC(=O)NC3=O)C4=O)cc2)nn1-c1cc2c(nn1)-c1ccccc1CCC2 (stereo not drawn)
IC50 (MDA-MB-231 [19]): 29.5 µM
IC50 (4T1 [24]): 2230 µM
IC50 at 72 h [25]: > 60 µM
IC50 at 72 h [32]: > 60 µM

Nc1nc(NCCNC(=O)CCCCCNc2cccc3c2CN(C2CCC(=O)NC2=O)C3=O)nn1-c1ccc(-c2ccccc2)nn1 (stereo not drawn)
IC50 (MDA-MB-231 [19]): 31.7 µM
IC50 (4T1 [24]): 27.9 µM
IC50 at 72 h [25]: > 60 µM
IC50 at 72 h [32]: > 60 µM

Nc1nc(Nc2ccc3c(c2)CC[C@@H](N2CCCC2)CC3)nn1-c1cc2c(nn1)-c1ccccc1CCC2 [BEMCENTINIB]
Activity [3]: Non-Toxic
Activity [7]: Non-Toxic
Activity [9]: Non-Toxic
Activity [11]: Non-Toxic
Activity [14]: Non-Toxic
TGI (MDA-MB-231 [18]): Active
IC50 (MDA-MB-231 [19]): 2.84 µM
Activity [21]: Non-Toxic
Activity [22]: Non-Toxic
IC50 (4T1 [24]): 0.94 µM
IC50 at 72 h [25]: > 60 µM
Activity [27]: Non-Toxic
Activity [28]: Non-Toxic
Activity [29]: Non-Toxic
Activity [30]: Non-Toxic
IC50 at 72 h [32]: > 60 µM

Nc1nc(NCCNC(=O)CCCCNc2cccc3c2CN(C2CCC(=O)NC2=O)C3=O)nn1-c1cc2c(nn1)-c1ccccc1CCC2 (stereo not drawn)
IC50 (MDA-MB-231 [19]): 36.2 µM
IC50 (4T1 [24]): 7.05 µM
IC50 at 72 h [25]: > 60 µM
IC50 at 72 h [32]: > 60 µM

Nc1nc(Nc2ccc(CNC(=O)CCCCCCNc3cccc4c3CN(C3CCC(=O)NC3=O)C4=O)cc2)nn1-c1ccc(-c2ccccc2)nn1 (stereo not drawn)
IC50 (MDA-MB-231 [19]): 28.5 µM
IC50 (4T1 [24]): 24.6 µM
IC50 at 72 h [25]: > 60 µM
IC50 at 72 h [32]: > 60 µM

Nc1nc(NCCNC(=O)CCCCCCNc2cccc3c2CN(C2CCC(=O)NC2=O)C3=O)nn1-c1ccc(-c2ccccc2)nn1 (stereo not drawn)
IC50 [34]: > 60 µM
IC50 (MDA-MB-231 [19]): > 60 µM
IC50 (4T1 [24]): > 60 µM
IC50 at 72 h [25]: > 60 µM
IC50 at 72 h [32]: > 60 µM

Nc1nc(Nc2ccc(CNC(=O)CCCNc3cccc4c3CN(C3CCC(=O)NC3=O)C4=O)cc2)nn1-c1ccc(-c2ccccc2)nn1 (stereo not drawn)
IC50 (MDA-MB-231 [19]): 48 µM
IC50 (4T1 [24]): > 60 µM
IC50 at 72 h [25]: > 60 µM
IC50 at 72 h [32]: > 60 µM

Nc1nc(Nc2ccc(CNC(=O)CCCCNc3cccc4c3CN(C3CCC(=O)NC3=O)C4=O)cc2)nn1-c1cc2c(nn1)-c1ccccc1CCC2 (stereo not drawn)
IC50 (MDA-MB-231 [19]): 39.1 µM
IC50 (4T1 [24]): 41.3 µM
IC50 at 72 h [25]: > 60 µM
IC50 at 72 h [32]: > 60 µM

Nc1nc(NCCNC(=O)CCCCCCCNc2cccc3c2CN(C2CCC(=O)NC2=O)C3=O)nn1-c1cc2c(nn1)-c1ccccc1CCC2 (stereo not drawn)
IC50 (MDA-MB-231 [19]): > 60 µM
IC50 (4T1 [24]): 27.2 µM
IC50 at 72 h [25]: > 60 µM
IC50 at 72 h [32]: > 60 µM
